Experimental data: US8735620B2, “Processes for preparing (E)-styrylbenzylsulfone compounds and uses thereof for treating proliferative disorders” (priority 2008, dated 2014)

How the values were obtained:
PC-3 = assay: Tumor cell killing, PC-3; format: cell-based, human; settings: PC-3, PROSTATE (AR+); read-out: Tumor cell killing (IC50) concentration
A549 = assay: Tumor cell killing, A549; format: cell-based, human; settings: A549, NSCLC; read-out: Tumor cell killing (IC50) concentration
N417 = assay: Tumor cell killing, N417; format: cell-based, human; settings: N417, SCLC; read-out: Tumor cell killing (IC50) concentration
COLO-205 = assay: Tumor cell killing, COLO-205; format: cell-based, human; settings: COLO-205, COLO-RECTAL; read-out: Tumor cell killing (IC50) concentration
2008/17/4 = assay: Tumor cell killing, 2008/17/4; format: cell-based, human; settings: *2008/17/4, Resistant Ovarian (multi-drug resistant); read-out: Tumor cell killing (IC50) concentration
Protocol: Tissue Culture and Reagents: Paclitaxel was purchased from Sigma. Cell lines were purchased from ATCC. Cell lines were routinely grown in DMEM or RPM1 (CellGro) supplemented with 10% fetal bovine serum (Atlas) and 1 unit/mL penicillin-streptomycin (Gibco).
A number of tumor cell lines were tested using a dose response end point assay system. The cells were grown in either DMEM or RPMI supplemented with 10% fetal bovine serum and 1 unit/mL Penicillin-Streptomycin solution. The tumor cells were plated into 6 well dishes at a cell density of 1.0×10^5 cells/mL/well and compounds were added 24 h later at various concentrations. Cell counts were determined from duplicate wells after 96 h of treatment. The total number of viable cells was determined by trypan blue exclusion.

BT20 = assay: Soft agar colony formation, BT20; format: cell-based, human; settings: BT20, dose dependent
[1] = test system: DU145 (prostate cancer) cells; assay: Cell cycle analysis by flow cytometry, tumor cells; format: cell-based, human; settings: DU145, 20 nM, 24 hr intervals
Protocol: (§1) FIG. 2 Preferential tumor cell killing activity of 6aa. A. Cell Cycle analyses. Normal (HUVEC) and tumor cells (DU145) were treated with 20 nM concentration of 6aa and incubated in medium containing 10% fetal bovine serum. At 24 hr intervals, the cells were fixed, stained with propidium iodide and analyzed for their DNA content by flow Cytometry. B. Induction of apoptosis in normal (HUVEC) and tumor cells (DU145) was assessed by western blot analysis of cell lysates treated with 6aa for 24, 48 and 72 h. The Western blots were probed with anti-PARP antibodies to assess the cleavage of the protein.
Human prostate tumor cells, DU145 cells, and normal diploid human lung fibroblasts, HFL-1 cells, were grown in DMEM (Cellgro) supplemented with 10% fetal bovine serum and 1 unit/mL penicillin-streptomycin. The cells were plated onto 100 mm^2 dishes at a cell density of 1.0×10^6 cells/dish, and 24 h later, they were treated with 2.5 μM of the compound. The cells were harvested 24, 48 and 72 h after treatment. The cells were removed from the plate by trypsin digestion and combined with the non-attached cells found in the medium. The cell pellets were washed in phosphate buffered saline (PBS), and fixed in ice cold 70% ethanol for at least 24 h. […] The stained cells were then analyzed on a Becton-Dickinson (BD) (FACScan) flow cytometer and the data analyzed by cell cycle analysis software (Modfit, BD).

HUVEC = assay: PARP cleavage western blot, normal cells; format: cell-based, human; settings: HUVEC, 24, 48 and 72 h
Protocol: as §1
BT20 cells were plated at a density of 3.0×10^6 cells per 150 mm^2 plate and treated 24 h later with either DMSO or 6aa. The cells were collected at the indicated time points and cell pellets were frozen. The frozen cell pellets were lysed in 1% NP40/PBS lysis buffer containing protease inhibitors. Equal amounts of total cellular protein was then resolved on a 10%-SDS-polyacrylamide gel. The gels were transferred onto nitrocellulose paper (S/S), hybridized with anti-PARP antibodies (BD) and developed using ECL (Perkin-Elmer, MA) solution.

bone marrow cells = assay: Bone marrow harvest and colony formation assay; format: in vivo, CD-1 mice; settings: 100 mg/kg intravenously, 12, 24 and 48 h after injection
Protocol: FIG. 4 Bone marrow toxicity profile of 6ab. To assess the toxicity of 6ab, the phosphate salt of the drug was injected into mice (100 mg/Kg) and bone marrow harvested from femur and tibia after 12, 24 and […] following the injection of the drug. The bone marrow cells were cultured in methylcellulose medium supplemented with a mixture of stem cell factor, GM-CSF, IL-3 and erythropoietin for one week and colony forming units were determined.
Bone marrow was harvested from femur and tibia of CD-1 mice injected with 200 μL of PBS or 6ab [10 mg/mL:100 mg/kg dose] at 12, 24, or 48 h before the sacrifice. The bone marrow cells were cultured in Methylcellulose medium supplemented with 50 ng/mL rmStem Cell Factor, 10 ng/mL rmIL-3, 10 ng/mL rh IL-6, 200 μg/mL human Transfeffin, and 3 units/mL rhErythropoietin (Stem Cell Technologies, Vancouver, BC, Canada). Cultures were seeded in duplicates using 35 mm plastic petri dishes and colony forming units were determined after one week.

[2] = test system: BT20 human breast carcinoma xenograft; assay: Nude mouse xenograft assay
Protocol: Female athymic (NCr-nu/nu) mice were injected subcutaneously with 0.5-1×10^7 ER-negative human breast tumor cells (BT-20) in 0.2 mL of PBS and the tumors allowed to grow to a size of 100-150 mm^3 in size in about 14 days. The mice were then paired such that the pairs harbored equal sized tumors, which were then used to test the therapeutic effects of 6s and 6ab. A Of the pairs, the animals were treated with either 50 mg/kg 6s following a Q4D schedule or 25 mg/kg using a Q2D schedule or vehicle (DMSO) control. The tumor size was then measured on alternate days in two dimensions and the volume determined using either of the following equations: 1: V=(L×(S^2))π/6); where L is the longer and S is the shorter of the two measurements. B. 6ab was dissolved in PBS and was administered intravenously (50 mg/kg) through the tail vein on every alternate day. Tumor measurements were done as in materials and methods.
Female athymic (NCR-nu/nu, Taconic) nude mice were injected with 0.5-1.0×10^7 BT20 cells subcutaneously in the hind leg using a 1 mL tuberculin syringe equipped with a 271/2 gauge needle. Approximately 14 days later, mice were paired (N=8) and injected with 6ab or Phosphate buffered saline as the vehicle control. The intravenous injections were performed in the mouse tail vein using a 1 mL tuberculin syringe equipped with a 30 gauge needle. The animals were injected following a Q2D×3 schedule. Tumor measurements (two dimensions) were done three times per week using traceable digital vernier calipers (Fisher).

Row | SMILES | IC50 (PC-3) [nM] | IC50 (A549) [nM] | IC50 (N417) [nM] | IC50 (COLO-205) [nM] | IC50 (2008/17/4) [nM] | growth of tumor cells in soft agar (BT20) | effect on cell cycle progression [1] | PARP cleavage (HUVEC) | in vitro hematopoietic colony formation of bone marrow cells (bone marrow cells) | fold increase in tumor volume ([2]; 25 mg/kg Q2D, IP, 22 day period, vehicle 5 fold) [fold] | final tumor volume ([2]; 25 mg/kg Q2D, IP, after 22 days, from 67.5 mm^3) [mm^3] | tolerability by body weights and physical observations ([2]; 50 mg/kg Q4D or 25 mg/kg Q2D, IP) | fold increase in average tumor volume ([2]; 50 mg/kg Q4D, IP, 22 day period, vehicle 5 fold) [fold] | final average tumor volume ([2]; 50 mg/kg Q4D, IP, after 22 days, from 74 mm^3) [mm^3] | tumor volume response of the majority of the mice ([2]; 8 mice per group)
1 | COc1cc(OC)c(/C=C/S(=O)(=O)Cc2ccc(OC)c(O)c2)c(OC)c1 [6aa, (E)-2,4,6-Trimethoxystyryl-3-Hydroxy-4-Methoxybenzyl Sulfone] | 8 | 10 | 5 | 9 | 4 | complete inhibition of the growth of tumor cells | gradually accumulated in the G2/M phase | No PARP cleavage was observed | no reduction in total, myeloid or lymphoid colony formation | – | – | – | – | – | –
2 | COc1ccc(CS(=O)(=O)/C=C/c2c(OC)cc(OC)cc2OC)cc1 [6s, (E)-2,4,6-Trimethoxystyryl-4-Methoxybenzyl sulfone] | 30 | 20 | 8 | 15 | – | – | – | – | – | 2.5 | 165 | well tolerated | 2.9 | 217 | growth arrest or a gradual reduction in their tumor volume
